Source: PMC3192013 (ChemMedChem, 2011)

The compounds below were run on Stat3 (Stat3–Stat3:DNA complex, EMSA) (assay: in vitro Stat3 inhibition). Conditions: assay not given.
Format: biochemical
For O=C(O)c1ccc(N(Cc2ccc(C3CCCCC3)cc2)C(=O)CO)cc1O [compound 47, primary alcohol 47], the IC50 was greater than 300 µM.

What follows are compounds tested on Stat3 (Stat3–Stat3:DNA complex, EMSA) (assay: EMSA, Stat3-Stat3:DNA disruption). Conditions: nuclear extract.
Format: biochemical
With Cc1ccc(S(=O)(=O)N(C)CC(=O)N(Cc2ccc(C3CCN(c4ccc(C#N)cc4)CC3)cc2)c2ccc(C(=O)O)c(O)c2)cc1 [27kd, 27 kd] the IC50 was 45 ± 12 µM. With Cc1ccc(S(=O)(=O)N(C)CC(=O)Nc2ccc(C(=O)O)c(O)c2)cc1 [compound 10, 10] the IC50 was greater than 300 µM. In the case of Cc1ccc(S(=O)(=O)OCC(=O)N(Cc2ccccc2)c2ccc(C(=O)O)c(O)c2)cc1 [compound 12, SF-1-120], the IC50 is reported as greater than 300 µM. Cc1ccc(S(=O)(=O)N(CC(=O)Nc2ccc(C(=O)O)c(O)c2)C(=O)OC(C)(C)C)cc1 [compound 11, 11] was tested, and the IC50 was greater than 300 µM. Cc1ccc(S(=O)(=O)N(C)CC(=O)N(CC2CCN(c3ccc(C#N)cc3)CC2)c2ccc(C(=O)O)c(O)c2)cc1 [27jc, 27 jc] showed an IC50 greater than 300 µM. In the case of Cc1ccc(S(=O)(=O)N(C)CC(=O)N(Cc2ccc(C3CCNCC3)cc2)c2ccc(C(=O)O)c(O)c2)cc1 [27kb, 27 kb], the IC50 is reported as greater than 300 µM. In the case of Cc1ccc(S(=O)(=O)N(C)CC(=O)N(CC2CCN(C(=O)OC(C)(C)C)CC2)c2ccc(C(=O)O)c(O)c2)cc1 [27jb, 27 jb], the IC50 is reported as greater than 300 µM. Work on Cc1ccc(S(=O)(=O)N(C)CC(=O)N(CC2CCN(c3ncccn3)CC2)c2ccc(C(=O)O)c(O)c2)cc1 [27jd, 27 jd] yielded an IC50 greater than 300 µM. For Cc1ccc(S(=O)(=O)NCC(=O)Nc2ccc(C(=O)O)c(O)c2)cc1 [compound 9, SF-1-082], the IC50 was greater than 300 µM. Cc1ccc(S(=O)(=O)N(C)CC(=O)N(Cc2ccc(C3CCN(S(=O)(=O)c4ccc(C#N)cc4)CC3)cc2)c2ccc(C(=O)O)c(O)c2)cc1 [27kg, 27 kg] was tested, and the IC50 was 50 ± 15 µM. With Cc1ccc(S(=O)(=O)N(C)CC(=O)N(Cc2ccc(C(C)(C)C)cc2)c2ccc(C(=O)O)c(O)c2)cc1 [27f, SF-1-068] the IC50 was 194 ± 47 µM. Work on Cc1ccc(S(=O)(=O)N(C)CC(=O)N(Cc2ccc(C3CCN(C(=O)OC(C)(C)C)CC3)cc2)c2ccc(C(=O)O)c(O)c2)cc1 [27kc, 27 kc] yielded an IC50 greater than 300 µM. Compound Cc1ccc(S(=O)(=O)NCC(=O)N(Cc2ccccc2)c2ccc(C(=O)O)c(O)c2)cc1 [compound 13, 13] has an IC50 greater than 300 µM. Work on Cc1ccc(S(=O)(=O)N(C)CC(=O)N(CC2CCCCC2)c2ccc(C(=O)O)c(O)c2)cc1 [27e, 27 e] yielded an IC50 greater than 300 µM. For Cc1ccc(S(=O)(=O)N(C)CC(=O)N(Cc2ccc(C3CCN(C(=O)C(F)(F)F)CC3)cc2)c2ccc(C(=O)O)c(O)c2)cc1 [27ka, 27 ka], the IC50 was greater than 300 µM. With Cc1ccc(S(=O)(=O)N(CC(=O)N(Cc2ccccc2)c2ccc(C(=O)O)c(O)c2)C(=O)OC(C)(C)C)cc1 [compound 15, 15] the IC50 was greater than 300 µM. With Cc1ccc(S(=O)(=O)N(C)CC(=O)N(Cc2ccc(C#N)cc2)c2ccc(C(=O)O)c(O)c2)cc1 [27c, SF-1-073] the IC50 was 260 ± 47 µM. For Cc1ccc(S(=O)(=O)NCC(=O)N(Cc2ccc(C3CCCCC3)cc2)c2ccc(C(=O)O)c(O)c2)cc1 [compound 41, SF-1-083], the IC50 was 95 ± 9 µM.

Same assay, conditions: nuclear extract; Table 2 prints 295 ± 35
For Cc1ccc(S(=O)(=O)N(C)CC(=O)N(Cc2ccccc2)c2ccc(C(=O)O)c(O)c2)cc1 [compound 14, SF-1-062], the IC50 was 292 ± 35 µM.

Same assay, conditions: read-out: [drawing 30] / IC50; nuclear extract
COC(=O)c1cccc(-c2ccc(CN(C(=O)CN(C)S(=O)(=O)c3ccc(C)cc3)c3ccc(C(=O)O)c(O)c3)cc2)c1 [27la, 27 la] was tested, and the IC50 was 191 ± 8 µM. Work on Cc1ccc(S(=O)(=O)N(C)CC(=O)N(Cc2ccc(-c3ccc(C(N)=O)cc3)cc2)c2ccc(C(=O)O)c(O)c2)cc1 [27lg, 27 lg] yielded an IC50 greater than 300 µM. Cc1ccc(S(=O)(=O)N(C)CC(=O)N(Cc2ccc(-c3cccc(C(N)=O)c3)cc2)c2ccc(C(=O)O)c(O)c2)cc1 [27lc, 27 lc] gave an IC50 greater than 300 µM. With Cc1ccc(S(=O)(=O)N(C)CC(=O)N(Cc2ccc(-c3ccc(C#N)cc3)cc2)c2ccc(C(=O)O)c(O)c2)cc1 [27lf, 27 lf] the IC50 was 274 ± 10 µM.

Same assay, conditions: read-out: [drawing 30] / IC50; nuclear extract; label printed 27 gld
COC(=O)c1ccc(-c2ccc(CN(C(=O)CN(C)S(=O)(=O)c3ccc(C)cc3)c3ccc(C(=O)O)c(O)c3)cc2)cc1 [27ld, 27 ld] showed an IC50 of 141 ± 10 µM.

Same assay, conditions: read-out: [drawing 31] / IC50; nuclear extract
In the case of Cc1ccc(S(=O)(=O)N(C)CC(=O)N(Cc2ccc(-c3ccc(-c4ccc(C(N)=O)cc4)cc3)cc2)c2ccc(C(=O)O)c(O)c2)cc1 [27nh, 27 nh], the IC50 is reported as 43 ± 1.3 µM.
